Data: patent US10618903B2, “Heteroaryl substituted aminopyridine compounds” (BRISTOL-MYERS SQUIBB COMPANY, priority 2015, dated 2020)

Experiments:
IRAK4 = IRAK4 (Homo sapiens (Human), UniProt Q9NWZ3); assay: IRAK4 Inhibition Assay; format: biochemical; conditions: ATP 500 μM; IRAK4 0.6 nM
In short: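 Mobility-shift readout: phosphorylated and unphosphorylated fluorescent peptide (1.5 μM) resolved by electrophoresis after a 60 min room-temperature reaction stopped with EDTA. Reaction holds 0.6 nM IRAK4, 500 μM ATP and 1.6% DMSO in HEPES pH 7.2/MgCl2/Brij 35/DTT buffer; percent inhibition set against vehicle and no-enzyme controls.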

Caco Permeability Assay = format: in vitro ADME; conditions: human, Caco-2, Caco-2 cells, 3 μM compound
[1] = tested on: IL-6 levels in human whole blood stimulated with a TLR2 agonist; assay: IRAK4 Whole Blood Assay (lipoteichoic acid/TLR2-stimulated IL-6); format: cell-based; conditions: lipoteichoic acid 10 μg/mL, IL-6 readout
In short: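 ACD-A-anticoagulated human whole blood was preincubated with compounds for 60 min at 37 °C under 5% CO2. It was then stimulated with 10 μg/mL lipoteichoic acid (final) in RPMI for 5 h. IL-6 in plasma supernatants was measured by flow cytometry bead assay.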

IRAK4, sequence (Q9NWZ3 whole entry): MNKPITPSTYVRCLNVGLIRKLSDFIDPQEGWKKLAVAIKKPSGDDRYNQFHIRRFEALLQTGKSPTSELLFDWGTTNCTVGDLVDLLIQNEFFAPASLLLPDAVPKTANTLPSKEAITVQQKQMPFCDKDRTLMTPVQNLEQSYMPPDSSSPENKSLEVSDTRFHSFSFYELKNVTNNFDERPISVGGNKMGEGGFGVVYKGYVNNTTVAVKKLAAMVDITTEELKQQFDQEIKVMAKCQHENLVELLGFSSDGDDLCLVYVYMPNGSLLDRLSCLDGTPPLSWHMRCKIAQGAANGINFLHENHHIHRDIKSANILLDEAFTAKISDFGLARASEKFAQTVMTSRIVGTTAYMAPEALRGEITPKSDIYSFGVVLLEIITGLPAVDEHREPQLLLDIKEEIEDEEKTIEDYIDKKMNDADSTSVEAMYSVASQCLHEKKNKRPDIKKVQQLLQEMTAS

Row | SMILES | IC50 (IRAK4) | Papp at 2 h, 3 µM (Caco Permeability Assay) | EC50 ([1]; Homo sapiens) | EC50 [1]
1 | CC(C)(O)[C@H](F)CNC(=O)c1cnc(-c2cnc3cc(C#N)cnn23)cc1NC1CCOC1 (stereo partly drawn) [Example 201, 6-(7-cyanoimidazo[1,2-b]pyridazin-3-yl)-N—((R)-2-fluoro-3-hydroxy-3-methylbutyl)-4-((tetrahydrofuran-3-yl)amino) nicotinamide] | 3 nM | < 1.5 ×10⁻⁶ cm/s | 80 nM | 
2 | CC(C)(O)[C@H](F)CNC(=O)c1cnc(-c2cnc3cc(C#N)cnn23)cc1NCCC(F)(F)F [Example 205, (R)-6-(7-cyanoimidazo[1,2-b]pyridazin-3-yl)-N-(2-fluoro-3-hydroxy-3-methylbutyl)-4-((3,3,3-trifluoropropyl)amino)nicotinamide] | 4 nM | 4.5 ×10⁻⁶ cm/s | 210 nM | 
3 | CC(C)Nc1cc(-c2cnc3cc(C#N)cnn23)ncc1C(=O)NCCc1ccccn1 [Example 216, 6-(7-cyanoimidazo[1,2-b]pyridazin-3-yl)-4-(isopropylamino)-N-(2-(pyridin-2-yl)ethyl)nicotinamide] | 8 nM | 23.9 ×10⁻⁶ cm/s | 310 nM | 
4 | CC(C)Nc1cc(-c2cnc3cc(C#N)cnn23)ncc1C(=O)NCCC1(O)CCCC1 [Example 217, 6-(7-cyanoimidazo[1,2-b]pyridazin-3-yl)-N-(2-(1-hydroxycyclopentyl)ethyl)-4-(isopropylamino)nicotinamide] | 2 nM | 25.6 ×10⁻⁶ cm/s | 300 nM | 
5 | CC(C)(O)CCNC(=O)c1cnc(-c2cnc3cc(Cl)cnn23)cc1NC1COC1 [Example 218, 6-(7-chloroimidazo[1,2-b]pyridazin-3-yl)-N-(3-hydroxy-3-methylbutyl)-4-(oxetan-3-ylamino)nicotinamide] | 5 nM | 2.1 ×10⁻⁶ cm/s | 220 nM | 
6 | CC(C)(O)[C@H](F)CNC(=O)c1cnc(-c2cnn3cc(Cl)cnc23)cc1Nc1cnn(CC(F)(F)F)c1 [Example 226, (R)-6-(6-chloropyrazolo[1,5-a]pyrimidin-3-yl)-N-(2-fluoro-3-hydroxy-3-methylbutyl)-4-((1-(2,2,2-trifluoroethyl)-1H-pyrazol-4-yl)amino)nicotinamide] | 3 nM | 3.6 ×10⁻⁶ cm/s |  | 210 nM
7 | CC(C)(F)Cn1cc(Nc2cc(-c3cnn4cc(Cl)cnc34)ncc2C(=O)NC[C@@H](F)C(C)(C)O)cn1 [Example 227, (R)-6-(6-chloropyrazolo[1,5-a]pyrimidin-3-yl)-4-((1-(2-fluoro-2-methylpropyl)-1H-pyrazol-4-yl)amino)-N-(2-fluoro-3-hydroxy-3-methylbutyl)nicotinamide] | 2 nM | 4 ×10⁻⁶ cm/s | 170 nM | 
8 | CC(C)(F)Cn1ccc(Nc2cc(-c3cnn4cc(Cl)cnc34)ncc2C(=O)NC[C@@H](F)C(C)(C)O)n1 [Example 229, (R)-6-(6-chloropyrazolo[1,5-a]pyrimidin-3-yl)-4-((1-(2-fluoro-2-methylpropyl)-1H-pyrazol-3-yl)amino)-N-(2-fluoro-3-hydroxy-3-methylbutyl)nicotinamide] | 9 nM | 11.3 ×10⁻⁶ cm/s | 580 nM | 
9 | CC(C)(O)[C@H](F)CNC(=O)c1cnc(-c2cnn3cc(C#N)cnc23)cc1Nc1ccn(CC(F)F)n1 [Example 230, (R)-6-(6-cyanopyrazolo[1,5-a]pyrimidin-3-yl)-4-((1-(2,2-difluoroethyl)-1H-pyrazol-3-yl)amino)-N-(2-fluoro-3-hydroxy-3-methylbutyl)nicotinamide] | 3 nM | < 1.5 ×10⁻⁶ cm/s | 430 nM | 
10 | CC(C)(O)[C@H](F)CNC(=O)c1cnc(-c2cnn3cc(Cl)cnc23)cc1Nc1cnn(C(F)F)c1 [Example 231, (R)-6-(6-chloropyrazolo[1,5-a]pyrimidin-3-yl)-4-((1-(difluoromethyl)-1H-pyrazol-4-yl)amino)-N-(2-fluoro-3-hydroxy-3-methylbutyl) nicotinamide] | 1 nM | 12.6 ×10⁻⁶ cm/s | 340 nM | 
11 | CCn1cc(Nc2cc(-c3cnn4cc(Cl)cnc34)ncc2C(=O)NC[C@@H](F)C(C)(C)O)cn1 [Example 232, (R)-6-(6-chloropyrazolo[1,5-a]pyrimidin-3-yl)-4-((1-ethyl-1H-pyrazol-4-yl)amino)-N-(2-fluoro-3-hydroxy-3-methylbutyl)nicotinamide] | 1 nM | 3.7 ×10⁻⁶ cm/s | 140 nM | 

Continued, values first:

Row | IC50 (IRAK4) | Papp at 2 h, 3 µM (Caco Permeability Assay) | EC50 ([1]; Homo sapiens) | EC50 [1] | SMILES
12 | 2 nM | 2.3 ×10⁻⁶ cm/s | 200 nM |  | CC(C)(F)Cn1cc(Nc2cc(-c3cnn4cc(C#N)cnc34)ncc2C(=O)NC[C@@H](F)C(C)(C)O)cn1 [Example 235, (R)-6-(6-cyanopyrazolo[1,5-a]pyrimidin-3-yl)-4-((1-(2-fluoro-2-methylpropyl)-1H-pyrazol-4-yl)amino)-N-(2-fluoro-3-hydroxy-3-methylbutyl)nicotinamide]
13 | 3 nM | < 1.5 ×10⁻⁶ cm/s |  | 660 nM | CC(C)(O)[C@H](F)CNC(=O)c1cnc(-c2cnn3cc(C#N)cnc23)cc1Nc1cnn(CC(F)(F)F)c1 [Example 236, (R)-6-(6-cyanopyrazolo[1,5-a]pyrimidin-3-yl)-N-(2-fluoro-3-hydroxy-3-methylbutyl)-4-((1-(2,2,2-trifluoroethyl)-1H-pyrazol-4-yl)amino) nicotinamide]
14 | 2 nM | 2.1 ×10⁻⁶ cm/s | 220 nM |  | CC(F)(F)Cn1cc(Nc2cc(-c3cnn4cc(C#N)cnc34)ncc2C(=O)NC[C@@H](F)C(C)(C)O)cn1 [Example 238, (R)-6-(6-cyanopyrazolo[1,5-a]pyrimidin-3-yl)-4-((1-(2,2-difluoropropyl)-1H-pyrazol-4-yl)amino)-N-(2-fluoro-3-hydroxy-3-methylbutyl)nicotinamide]
15 | 1 nM | 14.4 ×10⁻⁶ cm/s | 350 nM |  | CC(F)(F)Cn1cc(Nc2cc(-c3cnn4cc(Cl)cnc34)ncc2C(=O)NC[C@@H](F)C(C)(C)O)cn1 [Example 239, (R)-6-(6-chloropyrazolo[1,5-a]pyrimidin-3-yl)-4-((1-(2,2-difluoropropyl)-1H-pyrazol-4-yl)amino)-N-(2-fluoro-3-hydroxy-3-methylbutyl)nicotinamide]
16 | 2 nM | < 1.5 ×10⁻⁶ cm/s | 180 nM |  | Cn1cc(Nc2cc(-c3cnn4cc(C#N)cnc34)ncc2C(=O)NC[C@@H](F)C(C)(C)O)cn1 [Example 240, (R)-6-(6-cyanopyrazolo[1,5-a]pyrimidin-3-yl)-N-(2-fluoro-3-hydroxy-3-methylbutyl)-4-((1-methyl-1H-pyrazol-4-yl)amino)nicotinamide]
17 | 2 nM | 2.1 ×10⁻⁶ cm/s | 60 nM |  | COCCn1cc(Nc2cc(-c3cnn4cc(Cl)cnc34)ncc2C(=O)NC[C@@H](F)C(C)(C)O)cn1 [Example 242, (R)-6-(6-chloropyrazolo[1,5-a]pyrimidin-3-yl)-N-(2-fluoro-3-hydroxy-3-methylbutyl)-4-((1-(2-methoxyethyl)-1H-pyrazol-4-yl)amino) nicotinamide]
18 | 3 nM | < 1.5 ×10⁻⁶ cm/s | 160 nM |  | COCCn1cc(Nc2cc(-c3cnn4cc(C#N)cnc34)ncc2C(=O)NC[C@@H](F)C(C)(C)O)cn1 [Example 243, (R)-6-(6-cyanopyrazolo[1,5-a]pyrimidin-3-yl)-N-(2-fluoro-3-hydroxy-3-methylbutyl)-4-((1-(2-methoxyethyl)-1H-pyrazol-4-yl)amino)nicotinamide]
19 | 8 nM | < 1.5 ×10⁻⁶ cm/s | 380 nM |  | Cc1cc(Nc2cc(-c3cnn4cc(C#N)cnc34)ncc2C(=O)NC[C@@H](F)C(C)(C)O)n(C)n1 [Example 244, (R)-6-(6-cyanopyrazolo[1,5-a]pyrimidin-3-yl)-4-((1,3-dimethyl-1H-pyrazol-5-yl)amino)-N-(2-fluoro-3-hydroxy-3-methylbutyl)nicotinamide]
20 | 4 nM | 1.8 ×10⁻⁶ cm/s | 410 nM |  | CC(F)(F)Cn1ccc(Nc2cc(-c3cnn4cc(C#N)cnc34)ncc2C(=O)NC[C@@H](F)C(C)(C)O)n1 [Example 245, (R)-6-(6-cyanopyrazolo[1,5-a]pyrimidin-3-yl)-4-((1-(2,2-difluoropropyl)-1H-pyrazol-3-yl)amino)-N-(2-fluoro-3-hydroxy-3-methylbutyl)nicotinamide]
21 | 1 nM | 4.7 ×10⁻⁶ cm/s | 130 nM |  | CC(C)(O)[C@H](F)CNC(=O)c1cnc(-c2cnn3cc(Cl)cnc23)cc1Nc1cnn(C2CC2)c1 [Example 246, (R)-6-(6-chloropyrazolo[1,5-a]pyrimidin-3-yl)-4-((1-cyclopropyl-1H-pyrazol-4-yl)amino)-N-(2-fluoro-3-hydroxy-3-methylbutyl)nicotinamide]
22 | 2 nM | 8.1 ×10⁻⁶ cm/s | 360 nM |  | CC(C)Cn1cc(Nc2cc(-c3cnn4cc(Cl)cnc34)ncc2C(=O)NC[C@@H](F)C(C)(C)O)cn1 [Example 247, (R)-6-(6-chloropyrazolo[1,5-a]pyrimidin-3-yl)-N-(2-fluoro-3-hydroxy-3-methylbutyl)-4-((1-isobutyl-1H-pyrazol-4-yl)amino)nicotinamide]
23 | 2 nM | < 1.5 ×10⁻⁶ cm/s | 370 nM |  | CC(C)(O)[C@H](F)CNC(=O)c1cnc(-c2cnn3cc(C#N)cnc23)cc1Nc1cnn(C2CC2)c1 [Example 248, (R)-6-(6-cyanopyrazolo[1,5-a]pyrimidin-3-yl)-4-((1-cyclopropyl-1H-pyrazol-4-yl)amino)-N-(2-fluoro-3-hydroxy-3-methylbutyl)nicotinamide]
